Data taken from ChEMBL document CHEMBL4354856, “Discovery of 4,6-O-Thenylidene-β-d-glucopyranoside-(2″-acetamido, 3″-acetyl-di-S-5-fluorobenzothizole/5-fluorobenzoxazole)-4'-demethylepipodophyllotoxin as Potential Less Toxic Antitumor Candidate Drugs by Reducing DNA Damage and Less Inhibition of PI3K” (J Med Chem, 2020).
Calls of active or inactive are those of the source. The rule behind the calls is not given here.

How the values were obtained:
[1] = Acute toxicity in ip dosed C57BL6 mouse assessed as mouse survival administered as single dose for 3 days and monitored for 20 days by Bliss method; assay type: organism-based; conditions: in vivo
HepG2 [2] = assay: Cell cycle arrest in human HepG2 cells assessed as accumulation at G2/M phase at 5 uM after 24 hrs by propidium staining based flow cytometry analysis relative to control; assay type: functional
MCF7 = assay: Anticancer activity against human MCF7 cells assessed as inhibition of cell proliferation measured after 48 hrs by MTT assay; assay type: functional, cell-based; conditions: MCF7, 48 h
L02 [3] = assay: Cell cycle arrest in human HL7702 cells assessed as accumulation at G2/M phase at 50 uM after 42 hrs by propidium staining based flow cytometry analysis relative to control; conditions: l02, 42 h
HepG2 [4] = assay: Induction of apoptosis in human HepG2 cells assessed as apoptotic cells at 20 uM measured after 42 hrs by Annexin-V/propidium iodide staining based flow cytometry analysis relative to control; assay type: functional
HeLa = assay: Anticancer activity against human HeLa cells assessed as inhibition of cell proliferation measured after 48 hrs by MTT assay; assay type: functional, cell-based
HepG2 [5] = assay: Antitumor activity against human HepG2 xenografted in BALB/c nude mouse assessed as tumor growth inhibition at 30 mg/kg, ip administered for 20 days and measured after 20 days by electronic caliper method relative to control; assay type: functional; conditions: 480 h, read-out: TGI
L02 [6] = assay: Induction of DNA damage in human HL7702 cells assessed as effect on gamma-H2AX phosphorylation at 20 uM after 24 hrs by Alexa Fluor 488 staining based fluorescence assay; assay type: cell-based; conditions: l02, 24 h
L02 [7] = assay: Induction of apoptosis in human HL7702 cells assessed as increase in BAX level at 25 uM after 30 hrs by Western blot analysis; assay type: cell-based; conditions: l02, 30 h
[8] = biological target: DNA topoisomerase 2-alpha (Homo sapiens) (UniProt P11388); assay: Inhibition of human topoisomerase-2alpha mediated decatenation at 25 uM using kinetoplast DNA as substrate after 30 mins in presence of ATP by ethidium bromide staining-based UV imaging analysis
[9] = Acute toxicity in C57BL6 mouse assessed as lethality at 100 mg/kg, ip administered for 4 days; assay type: organism-based; conditions: in vivo, 96 h
HepG2 [10] = assay: Antitumor activity against human HepG2 xenografted in ip dosed BALB/c nude mouse administered for 20 days and measured after 20 days by electronic caliper method; assay type: functional; conditions: 480 h
HepG2 [11] = assay: Anticancer activity against human HepG2 cells assessed as inhibition of cell proliferation measured after 48 hrs by MTT assay; assay type: functional, cell-based; conditions: HepG2, 48 h
A549 = assay: Anticancer activity against human A549 cells assessed as inhibition of cell proliferation measured after 48 hrs by MTT assay; assay type: functional, cell-based; conditions: A549, 48 h
L02 [12] = assay: Genotoxicity in human HL7702 cells assessed as induction of DNA damage at 50 uM after 24 hrs by alkaline comet assay; assay type: toxicity, cell-based; conditions: l02, 24 h
L02 [13] = assay: Induction of apoptosis in human HL7702 cells assessed as apoptotic cells at 50 uM measured after 42 hrs by Annexin-V/propidium iodide staining based flow cytometry analysis relative to control; assay type: cell-based; conditions: l02, 42 h
HepG2 [14] = assay: Cell cycle arrest in human HepG2 cells assessed as accumulation at G2/M phase at 20 uM after 36 hrs by propidium staining based flow cytometry analysis relative to control; assay type: functional
Homo sapiens = species: Homo sapiens; assay: Induction of PI3K/AKT phosphorylation in human HL7702 cells at 25 uM after 30 hrs by Western blot analysis; assay type: cell-based
L02 [15] = assay: Cytotoxicity against human HL7702 cells assessed as inhibition of cell proliferation measured after 48 hrs by MTT assay; assay type: cell-based; conditions: L02, 48 h
L02 [16] = assay: Cell cycle arrest in human HL7702 cells assessed as accumulation at G2/M phase at 5 uM after 30 hrs by propidium staining based flow cytometry analysis; conditions: l02, 30 h
L02 [17] = assay: Induction of apoptosis in human HL7702 cells assessed as increase in PARP cleavage at 25 uM after 30 hrs by Western blot analysis; assay type: cell-based; conditions: l02, 30 h
MRC5 [18] = assay: Cytotoxicity against human MRC5 cells assessed as inhibition of cell proliferation measured after 48 hrs by MTT assay; assay type: cell-based; conditions: MRC5, 48 h
[19] = Cytotoxicity against human H8 cells assessed as inhibition of cell proliferation measured after 48 hrs by MTT assay; assay type: cell-based
HepG2 [20] = assay: Antitumor activity against human HepG2 xenografted in BALB/c nude mouse assessed as tumor volume at 30 mg/kg, ip administered for 20 days and measured after 20 days by electronic caliper method (reference value: 960.20 +/- 32.10 mm3); assay type: functional
DNA topoisomerase II [21] = biological target: T1, DNA topoisomerase II (Homo sapiens, UniProt P11388+Q02880); assay: Poison activity at topoisomerase-2 in human HepG2 cell lysate assessed as topoisomerase-2 band depletion after 3 hrs by Western blot analysis; assay type: subcellular
L02 [22] = assay: Genotoxicity in human HL7702 cells assessed as induction of DNA damage by measuring tail DNA at 50 uM after 24 hrs by alkaline comet assay (reference value: 3 +/- 1.1 %); assay type: toxicity, cell-based; conditions: l02, 24 h
HMEC [23] = assay: Cytotoxicity against human HMEC cells assessed as inhibition of cell proliferation measured after 48 hrs by MTT assay; assay type: cell-based
[24] = Acute toxicity in C57BL6 mouse assessed as effect on lung at 30 mg/kg, ip administered for 20 days and measured after 20 days by hematoxylin and eosin staining based assay; assay type: organism-based; conditions: in vivo, 480 h
[25] = Acute toxicity in C57BL6 mouse assessed as effect on liver at 30 mg/kg, ip administered for 20 days and measured after 20 days by hematoxylin and eosin staining based assay; assay type: organism-based; conditions: in vivo, 480 h
L02 [26] = assay: Cytotoxicity against human HL7702 cells assessed as inhibition of cell proliferation measured after 48 hrs by MTT assay relative to teniposide; assay type: cell-based; conditions: l02, 48 h
[27] = biological target: DNA topoisomerase 2-alpha (Homo sapiens) (UniProt P11388); assay: Inhibition of human topoisomerase-2alpha mediated decatenation at 50 uM using kinetoplast DNA as substrate after 30 mins in presence of ATP by ethidium bromide staining-based UV imaging analysis relative to control
MRC5 [28] = assay: Cytotoxicity against human MRC5 cells assessed as inhibition of cell proliferation measured after 48 hrs by MTT assay relative to teniposide; assay type: cell-based; conditions: mrc5, 48 h
L02 [29] = assay: Genotoxicity in human HL7702 cells assessed as induction of DNA damage at 50 uM after 24 hrs in combination of teniposide by alkaline comet assay; assay type: toxicity, cell-based; conditions: l02, 24 h
HepG2 [30] = assay: Induction of apoptosis in human HepG2 cells assessed as apoptotic cells at 10 uM measured after 42 hrs by Annexin-V/propidium iodide staining based flow cytometry analysis relative to control; assay type: functional
HepG2 [31] = assay: Cell cycle arrest in human HepG2 cells assessed as accumulation at G2/M phase at 15 uM after 36 hrs by propidium staining based flow cytometry analysis relative to control; assay type: functional
[32] = biological target: DNA topoisomerase 2-alpha (Homo sapiens) (UniProt P11388); assay: Inhibition of human topoisomerase-2alpha mediated decatenation using kinetoplast DNA as substrate after 30 mins in presence of ATP by ethidium bromide staining-based UV imaging analysis
[33] = Acute toxicity in C57BL6 mouse assessed as effect on body weight at 100 mg/kg, ip administered for 20 days; assay type: organism-based; conditions: in vivo, 480 h
[34] = Therapeutic index, ratio of LD50 for acute toxicity in ip dosed C57BL6 mouse assessed as mouse survival administered as single dose for 3 days and monitored for 20 days by Bliss method to ED50 for antitumor activity against human HepG2 xenografted in ip dosed BALB/c nude mouse administered for 20 days and measured after 20 days by electronic caliper method; assay type: organism-based; conditions: in vivo, read-out: TI
HepG2 [35] = assay: Induction of DNA damage in human HepG2 cells assessed as increase in H2AX phosphorylation at 20 uM after 24 hrs by Alexa Fluor 488 staining based fluorescence assay; assay type: functional, cell-based
HMEC [36] = assay: Cytotoxicity against human HMEC cells assessed as inhibition of cell proliferation measured after 48 hrs by MTT assay relative to teniposide; assay type: cell-based
DNA topoisomerase II [37] = biological target: T1, DNA topoisomerase II; assay: Poison activity at topoisomerase-2 in human HL7702 cell lysate assessed as reduction in topoisomerase-2 band depletion at 50 uM after 3 hrs by Western blot analysis; assay type: ADME, subcellular
L02 [38] = assay: Cell cycle arrest in human HL7702 cells assessed as accumulation at G2/M phase at 5 uM after 30 hrs by propidium staining based flow cytometry analysis relative to control; conditions: l02, 30 h
[39] = Acute toxicity in C57BL6 mouse assessed as effect on kidney at 30 mg/kg, ip administered for 20 days and measured after 20 days by hematoxylin and eosin staining based assay; assay type: organism-based; conditions: in vivo, 480 h
HepG2 [40] = assay: Induction of apoptosis in human HepG2 cells assessed as apoptotic cells at 5 to 15 uM measured after 36 hrs by Annexin-V/propidium iodide staining based flow cytometry analysis relative to control; assay type: functional
HepG2 [41] = assay: Cell cycle arrest in human HepG2 cells assessed as accumulation at G2/M phase at 5 uM after 24 hrs by propidium staining based flow cytometry analysis; assay type: functional
[42] = Acute toxicity in C57BL6 mouse assessed as effect on heart at 30 mg/kg, ip administered for 20 days and measured after 20 days by hematoxylin and eosin staining based assay; assay type: organism-based; conditions: in vivo, 480 h

Chain of DNA topoisomerase 2-alpha (Homo sapiens) (P11388 whole entry): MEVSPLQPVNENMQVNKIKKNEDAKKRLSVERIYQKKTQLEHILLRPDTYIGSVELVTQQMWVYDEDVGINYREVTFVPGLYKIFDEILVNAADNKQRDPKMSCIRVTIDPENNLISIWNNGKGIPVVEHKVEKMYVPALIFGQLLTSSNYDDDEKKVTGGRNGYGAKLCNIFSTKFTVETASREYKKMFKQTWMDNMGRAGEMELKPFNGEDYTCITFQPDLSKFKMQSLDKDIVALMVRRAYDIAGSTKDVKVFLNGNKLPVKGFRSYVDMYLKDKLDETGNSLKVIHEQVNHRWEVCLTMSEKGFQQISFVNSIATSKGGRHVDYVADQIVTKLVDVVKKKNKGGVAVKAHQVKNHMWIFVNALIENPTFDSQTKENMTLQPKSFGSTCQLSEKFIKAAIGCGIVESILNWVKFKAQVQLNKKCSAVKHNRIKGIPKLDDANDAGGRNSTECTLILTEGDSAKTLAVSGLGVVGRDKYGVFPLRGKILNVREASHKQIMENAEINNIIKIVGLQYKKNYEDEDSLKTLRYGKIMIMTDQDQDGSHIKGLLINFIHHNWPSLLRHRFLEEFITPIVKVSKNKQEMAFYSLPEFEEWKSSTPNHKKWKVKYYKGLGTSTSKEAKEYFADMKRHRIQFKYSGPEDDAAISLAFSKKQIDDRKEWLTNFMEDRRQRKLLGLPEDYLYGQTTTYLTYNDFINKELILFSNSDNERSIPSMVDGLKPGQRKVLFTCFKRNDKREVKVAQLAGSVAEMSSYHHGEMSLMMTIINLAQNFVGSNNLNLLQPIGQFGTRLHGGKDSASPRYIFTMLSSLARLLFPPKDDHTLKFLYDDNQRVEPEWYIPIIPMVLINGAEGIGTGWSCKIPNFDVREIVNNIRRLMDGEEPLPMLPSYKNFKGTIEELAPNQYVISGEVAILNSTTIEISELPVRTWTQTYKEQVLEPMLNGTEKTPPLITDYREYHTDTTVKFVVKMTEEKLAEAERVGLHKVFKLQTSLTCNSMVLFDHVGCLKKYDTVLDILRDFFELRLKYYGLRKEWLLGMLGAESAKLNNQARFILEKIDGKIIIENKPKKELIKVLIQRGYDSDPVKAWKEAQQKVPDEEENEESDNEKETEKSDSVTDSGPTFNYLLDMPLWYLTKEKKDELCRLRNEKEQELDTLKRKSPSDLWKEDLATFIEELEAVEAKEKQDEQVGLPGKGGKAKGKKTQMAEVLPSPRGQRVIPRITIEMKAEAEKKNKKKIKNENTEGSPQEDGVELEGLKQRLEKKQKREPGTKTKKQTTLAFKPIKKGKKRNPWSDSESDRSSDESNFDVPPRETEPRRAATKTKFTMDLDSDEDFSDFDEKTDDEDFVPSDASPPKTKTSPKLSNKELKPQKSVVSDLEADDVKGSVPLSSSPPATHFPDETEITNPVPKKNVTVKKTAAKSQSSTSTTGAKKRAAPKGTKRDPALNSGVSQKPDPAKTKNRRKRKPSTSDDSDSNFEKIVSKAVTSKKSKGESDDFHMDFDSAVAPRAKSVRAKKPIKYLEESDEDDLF

Row | Structure (SMILES) | LD50 at 480 h [1] [mg/kg] | IC50 (MCF7) [µM] | IC50 (HeLa) [µM] | inhibition in vivo at 30 mg/kg (HepG2 [5]) [%] | Activity (L02 [6]) | Activity (L02 [7]) | inhibition [8] | ED50 (HepG2 [10]) [mg/kg] | IC50 (HepG2 [11]) [µM] | IC50 (A549) [µM] | Activity (L02 [13]) [%] | Activity (Homo sapiens) | IC50 (L02 [15]) [µM] | Activity (L02 [17]) | IC50 (MRC5 [18]) [µM] | IC50 [19] [µM] | Activity (HepG2 [20]) [mm3] | IC50 (DNA topoisomerase II [21]) [µM] | Activity (L02 [22]) [%] | IC50 (HMEC [23]) [µM] | further results
1 | COc1cc([C@@H]2c3cc4c(cc3[C@@H](O[C@@H]3O[C@@H]5CO[C@@H](c6cccs6)O[C@H]5[C@H](O)[C@H]3O)[C@H]3COC(=O)[C@H]23)OCO4)cc(OC)c1O [TENIPOSIDE] | 46.1 | 11.1 | 14.9 | 48 | Toxic | Toxic | Active | 40.5 | 4.3 | 8.2 | 88 | inactive | 11.5 | Toxic | 12.2 | 22.3 | 259.15 | 62.7 | 98.3 | 12.4 | Activity (HepG2 [2]): >20%; Activity (L02 [3]): 84%; Activity (HepG2 [4]): 71%; Activity [9]: Toxic; Activity (L02 [12]): Toxic; Activity (HepG2 [14]): 86%; Activity (L02 [16]): Toxic
2 | COc1cc([C@@H]2c3cc4c(cc3[C@@H](O[C@@H]3O[C@@H]5CO[C@@H](c6cccs6)O[C@H]5[C@H](OC(=O)CSc5nc6cc(F)ccc6s5)[C@H]3NC(=O)CSc3nc5cc(F)ccc5s3)[C@H]3COC(=O)[C@H]23)OCO4)cc(OC)c1O | 208 | 10.8 | 152 | 73 | Toxic | Non-Toxic | Active | 32.6 | 10.3 | 12.6 | 30 | Active | 121 | Non-Toxic | 122 | 120 | 446.35 | 116.5 | 7.2 | 122 | Activity [24]: Non-Toxic; Activity [25]: Non-Toxic; fold change (FC) (L02 [26]): 10; inhibition [27]: 100%; fold change (FC) (MRC5 [28]): 10; Activity (L02 [29]): Toxic; Activity (HepG2 [30]): 55%; Activity (HepG2 [31]): 78%; inhibition [32]: Dose-dependent effect; Activity [33]: Non-Toxic; selectivity ratio at 20 days [34]: 6.39; Activity (HepG2 [35]): Active; fold change (FC) (HMEC [36]): 10; Activity (DNA topoisomerase II [37]): Not Active; Activity (L02 [38]): 40%; Activity [39]: Non-Toxic; Activity (HepG2 [40]): 30 - 55%; Activity (HepG2 [41]): inactive; Activity [42]: Non-Toxic
